Data reported in patent US9090600B2, “Fungicidal 4-substituted-3-{phenyl[(heterocyclylmethoxy)imino]methyl}-1,2,4-oxadizol-5(4H)-one derivatives” (BAYER INTELLECTUAL PROPERTY GMBH, priority 2011, dated 2015).
Where two headings read alike, the source gives them in different places. Marks after values point to notes of the source that are not given here.

Experiments:
Phytophthora infestans [1] = type: in vivo; settings: tomato, preventive spray, 100 ppm of active ingredient, evaluated 7 days after inoculation
Plasmopara viticola = assay: Plasmopara test (grapevines)/preventive; type: in vivo; settings: preventive spray, 10 ppm of active ingredient, evaluated 6 days after inoculation
Procedure, shortened: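 Young grapevines sprayed preventively with compound formulated in acetone/dimethylacetamide with emulsifier, diluted in water, then inoculated with P. viticola spores after drying. Held 1 day at ~20 °C/100% RH, 4 days in greenhouse at ~21 °C/~90% RH, then misted for 1 day. Efficacy scored 6 days post-inoculation (0% = untreated control, 100% = no disease).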

[2] = Measurement of log P values by HPLC on reversed phase columns (EEC directive 79/831 Annex V.A8); settings: for chromatographic logP: pH 2.7
[3] = system: Mycosphaerella graminicola; assay: In vivo test on Mycosphaerella graminicola (wheat leaf spot); settings: wheat plants, spray, 500 ppm, grading 21 to 28 days after contamination
Description: The active ingredients tested are prepared by homogenization in a mixture of acetone/tween/DMSO, then diluted with water to obtain the desired active material concentration.
Wheat plants (Scipion variety), sown on a 50/50 peat soil-pozzolana substrate in starter cups and grown at 22° C. (12 h)/20° C. (12 h), are treated at the 1-leaf stage (10 cm tall) by spraying with the aqueous suspension described above. Plants, used as controls, are treated with an aqueous solution not containing the active material.
After 24 hours, the plants are contaminated by spraying them with an aqueous suspension of cryopreserved Mycosphaerella graminicola spores (500.000 spores per ml). The contaminated wheat plants are incubated for 72 hours at 18° C. and at 100% relative humidity, and then for 21 to 28 days at 90% relative humidity.
Grading (% of efficacy) is carried out 21 to 28 days after the contamination, in comparison with the control plants.
(§1) Under these conditions, good (at least 70%) or total protection is observed at a dose of 500 ppm with the following compounds: […]

Uromyces appendiculatus = assay: In vivo test on Uromyces appendiculatus (brown rust of bean); settings: Saxa variety plants, spray, 500 ppm, grading 10 days after contamination
Description: (§2) The active ingredients tested are prepared by homogenization in a mixture of acetone/tween/DMSO, then diluted with water to obtain the desired active material.
[…] (Saxa variety) sown on 50/50 peat soil-pozzolana substrate in starter cups and grown at 24° C., are treated at the 2-leaf stage (9 cm tall) by spraying with the aqueous suspension described above.
(§3) Plants, used as controls, are treated with an aqueous solution not containing the active material.
(§4) After 24 hours, the plants are contaminated by spraying the leaves with an aqueous suspension of Uromyces appendiculatus spores (150.000 spores per ml). The spores are collected from a 10-day-old contaminated […] and are suspended in water containing 2.5 ml/l of tween 80 10%. The contaminated […] are incubated for 24 hours at 20° C. and at 100% relative humidity, and then for 10 days at 20° C. and at 70% relative humidity. Grading is carried out 10 days after the contamination, in comparison with the control plants.
as §1

Puccinia recondita = assay: In vivo test on Puccinia recondita (brown rust); settings: wheat plants, spray, 500 ppm, grading 10 days after contamination
Description: as §2
Wheat plants (Scipion variety) sown on 50/50 peat soil-pozzolana substrate in starter cups and grown at 22° C. (12 h)/20° C. (12 h), are treated at the 1-leaf stage (10 cm tall) by spraying with the aqueous suspension described above.
as §4, with “Plants, used as controls, are treated with an aqueous solution not containing the active material. After” for “After”, “Puccinia recondite” for “Uromyces appendiculatus”, “(100.000” for “(150.000”
as §1

Phytophthora infestans [4] = type: in vivo; settings: tomato plants, spray, 500 ppm, grading 5 days after contamination
[5] = pH 2.7
Pyrenophora teres = assay: In vivo test on Pyrenophora teres (barley net blotch); settings: barley plants, spray, 500 ppm, grading 12 days after contamination
Description: The active ingredients tested are prepared by homogenization in a mixture of acetone/Tween/DMSO, then diluted with water to obtain the desired active material concentration.
Barley plants (Plaisant variety), sown on a 50/50 peat soil-pozzolana substrate in starter cups and grown at 22° C. (12 h)/20° C. (12 h), are treated at the 1-leaf stage (10 cm tall) by spraying with the active ingredient prepared as described above.
as §3
After 24 hours, the plants are contaminated by spraying them with an aqueous suspension of Pyrenophora teres spores (12.000 spores per ml). The spores are collected from a 12-day-old culture.
The contaminated barley plants are incubated for 24 hours at about 20° C. and at 100% relative humidity, and then for 12 days at 80% relative humidity.
Grading is carried out 12 days after the contamination, in comparison with the control plants.
Under these conditions, good (at least 70%) is observed at a dose of 500 ppm with the following compounds: […]

For `CCCCOC(=O)Nc1nc(CO/N=C(/c2ccccc2)c2noc(=O)n2C)cs1` [Example 14, butyl {4-[({[(Z)-(4-methyl-5-oxo-4,5-dihydro-1,2,4-oxadiazol-3-yl)(phenyl)methylene]amino}oxy)methyl]-1,3-thiazol-2-yl}carbamate], the Eff. % (Phytophthora infestans [1]) was 95%, the Eff. % (Plasmopara viticola) was 96% and the chromatographic logP [2] was 3.73.
For `CCCCOC(=O)Nc1cccc(CO/N=C(/c2ccccc2)c2noc(=O)n2C)n1` [Example 18, butyl {6-[({[(Z)-(4-methyl-5-oxo-4,5-dihydro-1,2,4-oxadiazol-3-yl)(phenyl)methylene]amino}oxy)methyl]pyridin-2-yl}carbamate], the Eff. % (Phytophthora infestans [1]) was 95%, the Eff. % (Plasmopara viticola) was 100% and the chromatographic logP [2] was 4.04.
In the case of `CC(Oc1ccccc1)C(=O)Nc1nc(CO/N=C(/c2ccccc2)c2noc(=O)n2C)cs1` (centres unmarked) [Example 19], the Eff. % (Phytophthora infestans [1]) is reported as 95%, the Eff. % (Plasmopara viticola) is reported as 97% and the LogP ([2]; method [a], HPLC on reversed phase columns) is reported as 3.71 [a].
In the case of `Cn1c(/C(=N\OCc2cccc(NC(=O)OC(C)(C)C)n2)c2ccccc2)noc1=O` [Example 21, tert-butyl {6-[({[(Z)-(4-methyl-5-oxo-4,5-dihydro-1,2,4-oxadiazol-3-yl)(phenyl)methylene]amino}oxy)methyl]pyridin-2-yl}carbamate], the Eff. % (Phytophthora infestans [1]) is reported as 97%, the Eff. % (Plasmopara viticola) is reported as 100% and the chromatographic logP [2] is reported as 3.96.
For `CC(Nc1cccc(CO/N=C(/c2ccccc2)c2noc(=O)n2C)n1)c1ccccc1` (centres unmarked) [Example 43, 4-methyl-3-{(Z)-phenyl[({6-[(1-phenylethyl)amino]pyridin-2-yl}methoxy)imino]methyl}-1,2,4-oxadiazol-5(4H)-one], the Eff. % [3] was 91%, the Eff. % (Uromyces appendiculatus) was 75% and the Eff. % (Puccinia recondita) was 94%. The Eff. % (Phytophthora infestans [4]) was 100% and the chromatographic logP [2] was 2.86.
With `CCCCCCOC(=O)Nc1nc(CO/N=C(/c2ccccc2)c2noc(=O)n2C)cs1` [Example 53] the LogP [5] was 4.51 [a], the Eff. % (Phytophthora infestans [4]) was 73% and the Eff. % (Pyrenophora teres) was 70%.
In the case of `Cn1c(/C(=N\OCc2cccc(NC(=O)CCC3CC3)n2)c2ccccc2)noc1=O` [Example 62], the LogP [5] is reported as 3.51 [a], the Eff. % (Uromyces appendiculatus) is reported as 71% and the Eff. % (Phytophthora infestans [4]) is reported as 99%.
In the case of `CCC(=O)Nc1cccc(CO/N=C(/c2ccccc2)c2noc(=O)n2C)n1` [Example 71], the LogP [5] is reported as 2.77 [a], the Eff. % [3] is reported as 88% and the Eff. % (Phytophthora infestans [4]) is reported as 99%. For the same molecule, the Eff. % (Pyrenophora teres) was 70%.
With `Cn1c(/C(=N\OCc2cccc(NC(=O)CCC3CCCC3)n2)c2ccccc2)noc1=O` [Example 84] the LogP [5] was 4.36 [a], the Eff. % (Phytophthora infestans [4]) was 100% and the Eff. % (Pyrenophora teres) was 70%.
In the case of `C=CCCCCCC(=O)Nc1cccc(CO/N=C(/c2ccccc2)c2noc(=O)n2C)n1` [Example 99], the LogP [5] is reported as 4.3 [a], the Eff. % (Uromyces appendiculatus) is reported as 71% and the Eff. % (Phytophthora infestans [4]) is reported as 99%.
For `CC(Oc1ccccc1Br)C(=O)Nc1nc(CO/N=C(/c2ccccc2)c2noc(=O)n2C)cs1` (centres unmarked) [Example 113], the LogP [5] was 4.2 [a], the Eff. % (Uromyces appendiculatus) was 79% and the Eff. % (Phytophthora infestans [4]) was 90%.
With `Cc1cccc(/C(=N/OCc2cccc(NC(=O)OCc3ccccc3)n2)c2noc(=O)n2C)c1` [Example 117] the LogP [5] was 4.31 [a], the Eff. % [3] was 90% and the Eff. % (Pyrenophora teres) was 79%.
With `CCCCC(=O)Nc1cccc(CO/N=C(/c2cccc(F)c2)c2noc(=O)n2C)n1` [Example 140] the LogP [5] was 3.61 [a], the Eff. % (Uromyces appendiculatus) was 73% and the Eff. % (Puccinia recondita) was 86%. For the same molecule, the Eff. % (Phytophthora infestans [4]) was 100% and the Eff. % (Plasmopara viticola) was 85%.
For `COc1ccc(/C(=N/OCc2cccc(NC(=O)OC(C)CC(C)C)n2)c2noc(=O)n2C)cc1` (centres unmarked) [Example 185], the LogP [5] was 4.72 [a], the Eff. % (Uromyces appendiculatus) was 75% and the Eff. % (Puccinia recondita) was 78%. For the same molecule, the Eff. % (Phytophthora infestans [4]) was 83%.
For `Cn1c(/C(=N\OCc2cccc(NC(=O)OC(C)(C)C)n2)c2cccc(F)c2)noc1=O` [Example 206], the LogP [5] was 4.09 [a], the Eff. % (Uromyces appendiculatus) was 91% and the Eff. % (Phytophthora infestans [4]) was 100%. It also gave an Eff. % (Plasmopara viticola) of 81%.
For `CC(Oc1ccc(Br)cc1)C(=O)Nc1nc(CO/N=C(/c2ccccc2)c2noc(=O)n2C)cs1` (centres unmarked) [Example 216], the LogP [5] was 4.17 [a], the Eff. % (Uromyces appendiculatus) was 71% and the Eff. % (Phytophthora infestans [4]) was 95%.
With `C#CCCOC(=O)Nc1cccc(CO/N=C(/c2cccc(OC)c2)c2noc(=O)n2C)n1` [Example 228] the LogP [5] was 3.33 [a], the Eff. % (Uromyces appendiculatus) was 70% and the Eff. % (Puccinia recondita) was 81%. For the same molecule, the Eff. % (Phytophthora infestans [4]) was 100% and the Eff. % (Plasmopara viticola) was 93%.
For `CCCC(C)(C)OC(=O)Nc1cccc(CO/N=C(/c2ccccc2)c2noc(=O)n2C)n1` [Example 233, 2-methylpentan-2-yl {6-[({[(Z)-(4-methyl-5-oxo-4,5-dihydro-1,2,4-oxadiazol-3-yl)(phenyl)methylene]amino}oxy)methyl]pyridin-2-yl}carbamate], the Eff. % (Puccinia recondita) was 98%, the Eff. % (Phytophthora infestans [4]) was 99% and the Eff. % (Plasmopara viticola) was 78%. The chromatographic logP [2] was 4.77.
For `Cc1cccc(C(=NOCc2cccc(NC(=O)OC3CCCCC3)n2)c2noc(=O)n2C)c1` [Example 250], the LogP [5] was 4.82 [a], the Eff. % [3] was 96% and the Eff. % (Phytophthora infestans [4]) was 80%. The Eff. % (Pyrenophora teres) was 79%.
For `C=CCCC(=O)Nc1cccc(CON=C(c2ccccc2)c2noc(=O)n2C)n1` [Example 256], the LogP [5] was 3.25 [a], the Eff. % (Phytophthora infestans [4]) was 100% and the Eff. % (Pyrenophora teres) was 90%.
With `Cn1c(C(=NOCc2cccc(NC(=O)OCCc3ccccc3)n2)c2ccc(F)cc2)noc1=O` [Example 258] the LogP [5] was 4.24 [a], the Eff. % (Uromyces appendiculatus) was 93% and the Eff. % (Puccinia recondita) was 81%. It also gave an Eff. % (Phytophthora infestans [4]) of 89%.
For `CC(C)C=CCCCCC(=O)Nc1cccc(CON=C(c2ccccc2)c2noc(=O)n2C)n1` [Example 268], the LogP [5] was 5.06 [a], the Eff. % (Phytophthora infestans [4]) was 100% and the Eff. % (Pyrenophora teres) was 96%.
With `CC(Oc1ccc(Cl)cc1)C(=O)Nc1nc(CO/N=C(/c2ccccc2)c2noc(=O)n2C)cs1` (centres unmarked) [Example 276] the LogP [5] was 4.07 [a], the Eff. % (Uromyces appendiculatus) was 89% and the Eff. % (Phytophthora infestans [4]) was 98%.
In the case of `CCn1c(C(=NOCc2cccc(NC(=O)CC(C)C)n2)c2ccccc2)noc1=O` [Example 280], the LogP [5] is reported as 3.7 [a], the Eff. % (Uromyces appendiculatus) is reported as 83% and the Eff. % (Puccinia recondita) is reported as 98%. The Eff. % (Phytophthora infestans [4]) was 100%.
In the case of `CCCCOC(=O)Nc1cccc(CO/N=C(/c2cccc(F)c2)c2noc(=O)n2C)n1` [Example 295], the LogP [5] is reported as 4.14 [a], the Eff. % (Uromyces appendiculatus) is reported as 70% and the Eff. % (Phytophthora infestans [4]) is reported as 97%. The Eff. % (Plasmopara viticola) was 89%.
With `COCC(=O)Nc1cccc(CO/N=C(/c2ccccc2)c2noc(=O)n2C)n1` [Example 379] the LogP [5] was 2.73 [a], the Eff. % (Phytophthora infestans [4]) was 100% and the Eff. % (Pyrenophora teres) was 100%.
With `CCOCCOC(=O)Nc1cccc(CO/N=C(/c2ccccc2)c2noc(=O)n2C)n1` [Example 400] the LogP [5] was 3.17 [a], the Eff. % (Uromyces appendiculatus) was 94% and the Eff. % (Phytophthora infestans [4]) was 100%.
In the case of `CCCCCOC(=O)Nc1cccc(CO/N=C(/c2cccc(F)c2)c2noc(=O)n2C)n1` [Example 406], the LogP [5] is reported as 4.53 [a], the Eff. % [3] is reported as 79% and the Eff. % (Uromyces appendiculatus) is reported as 79%. For the same molecule, the Eff. % (Puccinia recondita) was 81%, the Eff. % (Phytophthora infestans [4]) was 94% and the Eff. % (Plasmopara viticola) was 79%.
